What was measured:
Abutilon theophrasti [1] = assay: Weeding effect in post-emergence stage (greenhouse pot spray); format: in vivo
In short: (§1)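 Greenhouse pot plants at the 2–3 leaf stage (2 weeks after sowing) were sprayed with compound in acetone with Tween 80 and methyl oleate EC synergist (1.5 L/ha) at 500, 250, 125, 60 or 15 g a.i./ha. Fresh-weight growth control was scored 3 weeks later, averaged over three replicates.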

Digitaria sanguinalis [2] = assay: as above; format: in vivo
In short: as §1

Echinochloa crusgalli = assay: as above; format: in vivo
In short: as §1

Setaria viridis = assay: as above; format: in vivo; details: Table 3, dose 60 g a.i./ha
In short: as §1

Amaranthus retroflexus = assay: as above; format: in vivo
In short: as §1

Stellaria media = assay: as above; format: in vivo
In short: as §1

[3] = system: Indica rice (Huanghuazhan); assay: Safety test of control experiments on rice; format: in vivo; details: Dose 250 g a.i./ha
Text: (§2) The activity level criteria for plant damage (i.e., growth control rate) are as follows: Comparative Experiments: [table]

[4] = system: Japonica rice (Huaidao No. 5); assay: Safety test of control experiments on rice; format: in vivo; details: Dose 250 g a.i./ha
Text: as §2

[5] = system: rice and Echinochloa crusgali; assay: Herbicide selection index between rice and Echinochloa crusgali; format: in vivo; details: average dose causing 10% phytotoxicity to rice divided by average dose causing 90% control efficiency to Echinochloa crusgali
Abutilon theophrasti [6] = assay: Post-emergence control experiment of R configuration compound activity (weeds 4-5 leaf stage, 25 days); format: in vivo; details: Abutilon theophrasti, post-emergence; read-out: Ablation theophrasti (30 g a.i./ha) inhibition rate
Method: (§3) Experiment on weeding effect in post-emergence stage: after 3-4 weeks of sowing, the test plants were treated in the 1.5-2 leaf stage of the directly sowed rice Longyang 16, and the 4-5 leaf stage of weeds. After the application of the compounds of the present invention, the plants were cultured for 25 days in the greenhouse, and then the experimental results of the weeding were counted.

Digitaria sanguinalis [7] = assay: as above; format: in vivo; details: Digitaria sanguinalis, post-emergence; read-out: Digitaria sanguinalis (30 g a.i./ha) inhibition rate
Method: as §3

Green Setaria viridis = assay: as above; format: in vivo; details: Setaria viridis, post-emergence
Method: as §3

Leptochloa chinensis = assay: as above; format: in vivo; details: Dinebra chinensis, post-emergence
Method: as §3

Rice (Longyang 16) = assay: Post-emergence control experiment of R configuration compound activity (directly sowed rice 1.5-2 leaf stage, 25 days); format: in vivo
Method: as §3
Longyang 16 is a representative and important long-grain fragrant rice in Northeast China. Long-grain fragrant rice is more sensitive to herbicides, especially to HPPD herbicides such as Mesotrione, Benzobicylon and the like, which are prone to causing phytotoxicity.

Echinochloa crusgali = assay: Transplanted rice safety evaluation and weed control effect evaluation in rice field; format: in vivo; details: Table 7, dose 125 g a.i./ha, 14 days after treatment
In short: (§4)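 Paddy-soil pots, seeds sown and flooded (0.5-1 cm, then 3-4 cm water); Sagittaria grown from tubers. WP or SC dilutions dripped on at 0.5-leaf stage (Sagittaria at primary leaf). Visual 0-5 scoring of weeds at 14 days, rice at 21 days.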

Monochoria vaginalis = assay: as above; format: in vivo; details: Table 7, dose 125 g a.i./ha, 14 days after treatment
In short: as §4

Scirpus juncoides = assay: as above; format: in vivo; details: Table 7, dose 125 g a.i./ha, 14 days after treatment
In short: as §4

Rice = assay: as above; format: in vivo, rice (japonica rice/Indica rice); details: Table 7, dose 125 g a.i./ha, 21 days after treatment
In short: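 Japonica and Indica rice at 3-leaf stage transplanted into flooded paddy soil (3-4 cm water). Compound applied 5 days after transplanting. Weeds scored visually on 0-5 scale at 14 days; rice injury at 21 days.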

[8] = system: gramineous weed (Echinochloa crusgali, Leptochloa chinensis or Digitaria sanguinalis); assay: Post-emergence activity on gramineous weed, comparison between compounds; format: in vivo; details: at low doses; versus Compound 1-2
Text: Experiment on weeding effect in post-emergence stage: monocotyledonous and dicotyledonous weed seeds (Descurainia sophia, Capsella bursa-pastoris, Abutilon theophrasti, Galium aparine, Stellaria media, Lithospermum arvense, rorippa indica, Alopecurus aequalis, Beckmannia syzigachne, Sclerochloa dura, Phleum paniculatum, Bromus japonicus, Aegilops tauschii, Phalaris arundinacea, Amaranthus retroflexus, Chenopodiaceae, Commelina communis, Sonchus arvensis, convolvulus arvensis, Cirsium setosum, Solanum nigrum, Acalypha australis, Digitaria sanguinalis, Echinochloa crusgalli, Setaria viridis, Setaria glauca, Leptochloa chinensis, Monochoria vaginalis, Sagittaria trifolia, Scirpus juncoides, Cyperus rotundus, Cyperus iria, Cyperus difformis, Fimbristylis, Portulaca oleracea, Xanthium sibiricum, Pharbitis nil) and major crop seeds (wheat, corn, rice, soybean, cotton, oilseed rape, millet, sorghum, potato, sesame, ricinus) were placed in plastic pots filled with soil, then covered with 0.5-2 cm of soil, allowed to grow in a good greenhouse environment. After 2 weeks of sowing, the test plants were treated in the 2 to 3 leaf stage. […] After the application, the plants were cultured for 3 weeks in the greenhouse, and then the experimental results of the weeding were counted. […]

## CCC[S+]([O-])c1c(C(F)(F)F)ccc(C(=O)Nc2nnc(C)o2)c1F (stereo not drawn) [Compound 1-8]
Abutilon theophrasti [1]; Table 2, dose 60 g a.i./ha
  Abutilion theophrasti (activity level): 5 (Level 5: growth control rate is above 85%)
Abutilon theophrasti [1]; Table 2, dose 125 g a.i./ha
  Abutilion theophrasti (activity level): 5 (Level 5: growth control rate is above 85%)
Abutilon theophrasti [1]; Table 3, dose 60 g a.i./ha
  Abutilon theophrasti (activity level): 5 (Level 5: growth control rate is above 85%)
Digitaria sanguinalis [2]; Table 2, dose 60 g a.i./ha
  Digitaria sanguinalis (activity level): 5 (Level 5: growth control rate is above 85%)
Digitaria sanguinalis [2]; Table 2, dose 125 g a.i./ha
  Digitaria sanguinalis (activity level): 5 (Level 5: growth control rate is above 85%)
Digitaria sanguinalis [2]; Table 3, dose 60 g a.i./ha
  Digitaria sanguinahs (activity level): 5 (Level 5: growth control rate is above 85%)
Echinochloa crusgalli; Table 2, dose 60 g a.i./ha
  Echinochloa crusgah (activity level): 5 (Level 5: growth control rate is above 85%)
Echinochloa crusgalli; Table 2, dose 125 g a.i./ha
  Echinochloa crusgah (activity level): 5 (Level 5: growth control rate is above 85%)
Echinochloa crusgalli; Table 3, dose 60 g a.i./ha
  Echinochloa crusgali (activity level): 5 (Level 5: growth control rate is above 85%)
Setaria viridis
  Setaria viridis (activity level): 5 (Level 5: growth control rate is above 85%)
Amaranthus retroflexus; Table 2, dose 60 g a.i./ha
  Amaranthus retroflexus (activity level): 5 (Level 5: growth control rate is above 85%)
Amaranthus retroflexus; Table 2, dose 125 g a.i./ha
  Amaranthus retroflexus (activity level): 5 (Level 5: growth control rate is above 85%)
Stellaria media; Table 2, dose 60 g a.i./ha
  Stellaria media (activity level): 5 (Level 5: growth control rate is above 85%)
Stellaria media; Table 2, dose 125 g a.i./ha
  Stellaria media (activity level): 5 (Level 5: growth control rate is above 85%)
[3]
  Indica rice (Huanghuazhan) (plant damage level): 0 (Level 0: growth control rate is less than 5%)
[4]
  Japonica rice (Huaidao No. 5) (plant damage level): 0 (Level 0: growth control rate is less than 5%)
[5]
  Selection index between rice and Echinochloa crusgali: >5
Abutilon theophrasti [6]
  inhibition at 30 g/ha: 90%
Digitaria sanguinalis [7]
  inhibition at 30 g/ha: 80%
Green Setaria viridis; read-out: Green Setaria viridis (30 g a.i./ha) inhibition rate
  inhibition at 30 g/ha: 10%
Green Setaria viridis; read-out: Green Setaria viridis (60 g a.i./ha) inhibition rate
  inhibition at 60 g/ha: 90%
Leptochloa chinensis; read-out: Leptochloa chinensis (60 g a.i./ha) inhibition rate
  inhibition at 60 g/ha: 30%
Leptochloa chinensis; read-out: Leptochloa chinensis (125 g a.i./ha) inhibition rate
  inhibition at 125 g/ha: 80%
Rice (Longyang 16); 250 g a.i./ha
  Rice (Longyang 16) (250 g a.i./ha) inhibition rate: 5%
Rice (Longyang 16); 500 g a.i./ha
  Rice (Longyang 16) (500 g a.i./ha) inhibition rate: 15%
Echinochloa crusgali
  Echinochloa crusgali (activity level): 5 (Level 5: growth control rate is above 85%)
Monochoria vaginalis
  Monochoria vaginalis (activity level): 5 (Level 5: growth control rate is above 85%)
Scirpus juncoides
  Scirpus juncoides (activity level): 5 (Level 5: growth control rate is above 85%)
Rice
  Rice (safety level): 0 (Level 0: growth control rate is less than 5%)
[8]
  activity on the gramineous weed relative to Compound 1-2: much more higher

Reference: US20230041563A1, “N-(1,3,4-OXADIAZOL-2-YL)ARYLCARBOXAMIDES OR SALTS THEREOF, PREPARATION METHODS, HERBICIDAL COMPOSITIONS AND USES THEREOF” (priority 2018, published 2023)
